For orientation: LD50 means the dose at which mortality reaches 50%. A higher LD50 goes with lower toxicity.

Consider 15 compounds from patent publication US4599337A, “Antiphlogistic/antipyretic/analgesic agents containing theobromine or theophylline derivatives as active ingredient” (Eisai Co., Ltd., priority 1985, dated 1986).

Where two headings read alike, the source gives them in different places.

For data set [1], the system named is SD male rats. As to the kind of experiment: Antipyretic activity, dry yeast-induced fever. Format: in vivo, rat (SD male). The settings on record: Rattus norvegicus, po, p.o. On the procedure:
A 2% suspension of dry yeast was injected subcutaneously to SD male rats of 250 to 300 g body weight in an amount of 2 ml/animal to cause a fever, and 4 hours later, the compounds of this invention and control drugs were administered orally. The rectal temperature of each rat was measured periodically, and the dosage of each compound required to reduce the fever by more than 1° C. at the peak of its activity was determined.

The subject of a further data set is Wistar rats. Kind of data set: Antiphlogistic activity, carrageenin paw edema. Format: in vivo, rat (Wistar). The settings on record: Rattus norvegicus, po, 3 h. On the procedure: Each test compound of this invention was administered orally to Wistar rats of about 300 g body weight, and 30 minutes later 0.05 ml of a 1% carrageenin solution was injected into a paw of each rat.

The next data set in a line: Acute toxicity in mice. Set-up: species or system mouse (ddy male). As to conditions: mouse, in vivo, po. How it is done:
(§1) Ten mice were used for each dose and morality was determined for 3 days after administration of each test compound of the invention. In the case of the rats, 5 rats were used for each dose and morality was determined 7 days after administrations.

The nature of another data set: Acute toxicity in rats. Set-up: species or system rat (SD male). As to conditions: rat, in vivo, po. On the procedure: as §1
In a further data set the test system is ddy-strain male mice. As to the kind of experiment: Analgesic activity, acetic acid writhing method. Format: in vivo, mouse (ddy-strain male). The settings on record: p.o.; for Analgesic activity ED50: acetic acid writhing. On the procedure: (a) Acetic acid writhing method^1
A 0.7% acetic acid solution was injected intraperitoneally to ddy-strain male mice (20 to 25 g) in an amount of 0.1 ml per 10 g mouse body weight to cause a writhing syndrome typified by stretching of the hind legs. The inhibitory action of each test compound against said symptom was observed as a measure of the analgesic activity of the compound. In the tests, each of the compounds of this invention and each of the control drugs listed below were administered orally to each test animal, and 50 minutes later said acetic acid solution was injected in the manner described above and the total number of typical writhes was determined over a period of 15 minutes.
(An intraperitoneal irritant provokes the stretching counted in writhing tests.)

The subject of data set [2] is SD male rats. As to conditions: p.o., given in Japan National Formulary, 6th Ed. (1982), 10080 min, cited from earlier work.
For the next data set, the system named is ddy male mice. The settings on record: p.o., given in Japan National Formulary, 6th Ed. (1982), 4320 min, cited from earlier work.
The test system of data set [3] is SD male rats. As to the kind of experiment: Analgesic activity, bradykinin-induced pain response. Format: in vivo, rat (SD male). As to conditions: p.o.; for Safety margin (LD50 /ED50): Table 2, rats; for Analgesic activity ED50 / Saftety margin (LD50 /ED50): Table 4, rats. On the procedure:
(b) Bradykinin-induced pain response^3,4
A polyethylene tube was inserted into a common right carotid artery of SD male rats (250 to 350 g) and 0.5 microngram per 0.1 ml of bradykinin was injected into the artery through said tube. Response induced by bradykinin such as flexin of the right forelimb, dextro-rotation of the head and rearing were considered as being indices of pain response, and the analgesic action of each test compound was determined by observing its inhibition of responses such symptoms.

The mark [4] stands for this setting: rats, read-out: effective dose ED for reducing the fever by more than 1° C. at the peak of its activity.
The mark [5] stands for this setting: Table 5, rats, read-out: ED (effective dose for reducing the fever by more than 1° C. when the compound action is at the peak).

In the case of `Cn1cnc2c1c(=O)n(CCCN1CCN(c3ccc(Cl)c(Cl)c3)CC1)c(=O)n2C` [Compound A', 1-(3-(4-(3,4-dichlorophenyl)piperazinyl-(1))-n-propyl)theobromine], the ED (fever reduced by more than 1 degC) in the data set with SD male rats [1] (setting [4]) was 40 mg/kg. Further, the ED30 in the data set with Wistar rats (Table 7, rats) was 25 mg/kg.
The compound `Cn1c(=O)c2c(ncn2CCCCN2CCN(c3ccc(F)cc3)CC2)n(C)c1=O` [Compound A] gave an LD50 at 72 h in the data set “Acute toxicity in mice” (Table 1, mice) of 344 mg/kg. Moreover, the LD50 at 168 h in “Acute toxicity in rats” (Table 2, rats) lay in the range of 353 to 500 mg/kg. The ED (fever reduced by more than 1 degC) with SD male rats [1] (setting [5]) was 10 mg/kg. The compound also showed an ED30 in the data set on Wistar rats (Table 6, rats) of 10 mg/kg.
`Cc1cccc(N2CCN(CCn3c(=O)c4c(ncn4C)n(C)c3=O)CC2)c1C` [Compound B', 1-(2-(4-(2,3-dimethylphenyl)piperazinyl-(1))-ethyl)theobromine.2HCl]: the median lethal dose (LD50) at 72 h in “Acute toxicity in mice” (Table 3, mice) is 600 mg/kg. Further, the 50% lethal dose (LD50) at 168 h in the data set “Acute toxicity in rats” (Table 4, rats) is at least 2000 mg/kg.
In turn, `Cn1c(=O)c2c(ncn2CCCCCN2CCN(c3ccc(Cl)cc3)CC2)n(C)c1=O` [Compound B] displayed an LD50 at 72 h in “Acute toxicity in mice” (Table 1, mice) of 704 mg/kg. This compound also gave an LD50 at 168 h in the data set “Acute toxicity in rats” (Table 2, rats) of 353 to 500 mg/kg. Moreover, in the data set on SD male rats [1] (setting [5]), the ED (fever reduced by more than 1 degC) was 40 mg/kg. Also, the ED30 in the data set on Wistar rats (Table 6, rats) turned out to be 50 mg/kg.
In “Acute toxicity in mice” (Table 3, mice), `Cn1cnc2c1c(=O)n(CCCN1CCN(c3ccccc3Cl)CC1)c(=O)n2C` [Compound C', 1-(3-(4-o-chlorophenylpiperazinyl-(1))-n-propyl)theobromine.2HCl] displayed an LD50 at 72 h of 200 mg/kg. This compound also came in with an ED30 in the data set on Wistar rats (Table 7, rats) of 10 mg/kg.
For the compound `Cc1ccc(N2CCN(CCCn3cnc4c3c(=O)n(C)c(=O)n4C)CC2)cc1C` [Compound C], the LD50 at 72 h in the data set “Acute toxicity in mice” (Table 1, mice) was at least 800 mg/kg. In “Acute toxicity in rats” (Table 2, rats), this compound registered a 50% lethal dose (LD50) at 168 h of 770 mg/kg. Besides, the ED (fever reduced by more than 1 degC) in the data set with SD male rats [1] (setting [5]) is 10 mg/kg.
`COc1ccccc1N1CCN(CCCCn2c(=O)c3c(ncn3C)n(C)c2=O)CC1` [Compound D', 1-(4-(4-o-methoxyphenylpiperazinyl-(1))-n-butyl)theobromine.2HCl] registered an LD50 at 72 h in the data set “Acute toxicity in mice” (Table 3, mice) of 400 to 800 mg/kg.
As to `Cn1c(=O)c2c(ncn2CCCCN2CCN(c3ccc(Cl)cc3)CC2)n(C)c1=O` [Compound D], the LD50 at 72 h in the data set “Acute toxicity in mice” (Table 1, mice) was determined as 575 mg/kg. Further, the 50% lethal dose (LD50) at 168 h in “Acute toxicity in rats” (Table 2, rats) is 505 mg/kg. Also, the ED (fever reduced by more than 1 degC) in the data set with SD male rats [1] (setting [5]) was 40 mg/kg. The same compound displayed an ED30 in the data set on Wistar rats (Table 6, rats) of 25 mg/kg.
In the data set “Acute toxicity in mice” (Table 3, mice), `Cn1cnc2c1c(=O)n(CCCCN1CCN(c3ccc(F)cc3)CC1)c(=O)n2C` [Compound E', 1-(4-(4-p-fluoropenylpiperazinyl-(1))-n-butyl)theobromine.2HCl] had an LD50 at 72 h of 200 mg/kg. For the same compound, the ED30 in the data set on Wistar rats (Table 7, rats) amounted to 25 mg/kg.
`Cn1cnc2c1c(=O)n(CCCCN1CCN(c3ccc(Cl)c(Cl)c3)CC1)c(=O)n2C` [Compound F', 1-(4-(4-(3,4-dichlorophenyl)piperazinyl-(1))-n-butyl)theobromine.2HCl] had an LD50 at 72 h in “Acute toxicity in mice” (Table 3, mice) of 400 to 800 mg/kg.
Take `Cn1c(=O)c2c(ncn2CCCCCN2CCN(c3cccc(C(F)(F)F)c3)CC2)n(C)c1=O` [Compound F]: in the data set “Acute toxicity in mice” (Table 1, mice), the LD50 at 72 h was at least 800 mg/kg. The compound further displayed an LD50 at 168 h in the data set “Acute toxicity in rats” (Table 2, rats) of 660 mg/kg. In addition, in the data set with SD male rats [1] (setting [5]), the ED (fever reduced by more than 1 degC) turned out to be 10 mg/kg. The compound also came in with an ED30 in the data set with Wistar rats (Table 6, rats) of 25 mg/kg.
As for `Cc1cccc(N2CCN(CCCCCn3c(=O)c4c(ncn4C)n(C)c3=O)CC2)c1` [Compound G', 1-(5-(4-m-methylphenylpiperazinyl-(1))-n-pentyl)theobromine.2HCl], in the data set on ddy-strain male mice (Table 3, mice), the “Safety margin (LD50 /ED50)” value stood at 22. The LD50 at 72 h in the data set “Acute toxicity in mice” (Table 3, mice) amounted to 300 mg/kg. Moreover, the ED30 in the data set on Wistar rats (Table 7, rats) came to 25 mg/kg.
Take `COc1cc(C)nc(-n2nc(C)cc2OC)n1` [Control drug I, 4-methoxy-2-(5-methoxy-3-methylpyrazol-1-yl)-6-methylpyrimidine]: the “Acute toxicity LD50” value in the data set with SD male rats [2] (Table 2, rats) is 526 mg/kg; in the data set with SD male rats [2] (Table 4, rats), 526 mg/kg; in the data set with ddy male mice (Table 1, mice) it was 1,022 mg/kg; in the data set on ddy male mice (Table 3, mice) it was 1022 mg/kg. In addition, the “Safety margin (LD50 /ED50)” value is 4.3 with ddy-strain male mice (Table 1, mice); 4.3 in the data set with ddy-strain male mice (Table 3, mice); at most 3 in the data set on SD male rats [3]. Besides, the “Analgesic activity ED50” value with ddy-strain male mice (Table 3, mice) is reported as 240 mg/kg; in the data set on SD male rats [3], at least 160 mg/kg. Also, the ED (fever reduced by more than 1 degC) in the data set with SD male rats [1] (setting [4]) and in the data set on SD male rats [1] (setting [5]) was 40 mg/kg in each case. The “Saftety margin (LD50 /ED50)” value in the data set on SD male rats [3] is given as at most 3.
As to `O=C(Cn1c(=O)sc2ccc(Cl)cc21)N1CCN(CCO)CC1` [Control drug II, 4-((5-chloro-2-oxo-3(2H)-benzothiazolyl)acetyl)-1-piperazineethanol], the “Acute toxicity LD50” value in the data set with ddy male mice (Table 1, mice) is given as 664 mg/kg; in the data set with ddy male mice (Table 3, mice), 564 mg/kg. The “Safety margin (LD50 /ED50)” value with ddy-strain male mice (Table 1, mice) is given as 8.5; with ddy-strain male mice (Table 3, mice), 8.5; in the data set on SD male rats [3] it was at most 23. In addition, the “Analgesic activity ED50” value is listed as 66 mg/kg in the data set on ddy-strain male mice (Table 3, mice) and at least 160 mg/kg in the data set on SD male rats [3]. Further, the ED (fever reduced by more than 1 degC) in the data set on SD male rats [1] (setting [4]) and in the data set on SD male rats [1] (setting [5]) was 40 mg/kg throughout. Further, the “Saftety margin (LD50 /ED50)” value with SD male rats [3] is reported as at most 23.
On to `OC(CN1CCCCC1)c1cc(-c2ccccc2)on1` (centres unmarked) [Control drug III, 3-(1-hydroxy-2-piperadinoethyl)-5-phenyl-isoxazole], for which the “Acute toxicity LD50” value was 1,978 mg/kg in the data set with SD male rats [2] (Table 2, rats); 1,978 mg/kg with SD male rats [2] (Table 4, rats); 612 mg/kg in the data set with ddy male mice (Table 1, mice); 612 mg/kg in the data set with ddy male mice (Table 3, mice). Moreover, the “Safety margin (LD50 /ED50)” value with ddy-strain male mice (Table 1, mice) amounted to 5.1; in the data set on ddy-strain male mice (Table 3, mice) it was 5.1; in the data set with SD male rats [3], 12. Further, in the data set with ddy-strain male mice (Table 3, mice), the “Analgesic activity ED50” value amounted to 120 mg/kg. Moreover, the ED (fever reduced by more than 1 degC) in the data set with SD male rats [1] (setting [4]) and in the data set with SD male rats [1] (setting [5]) was 160 mg/kg each time. In the data set on SD male rats [3], the “Saftety margin (LD50 /ED50)” value is given as 12.
